Data reported in patent US10376520B2, “Methods for the treatment of cardiovascular disorders” (Galapagos NV, priority 2015, dated 2019).

Test system: RA patients
Assay: Plasma ApoC-III concentration (ELISA), Study 4
Format: in vivo, human
Details: for ApoC-III level, 4 weeks CFB: 4 weeks change from baseline
Procedure: Randomized double-blind, placebo-controlled add on study in subjects with active RA who have an inadequate response to MTX monotherapy, in combination with methotrexate, administered for 4 weeks in the treatment of subjects with active rheumatoid arthritis who have an inadequate response to methotrexate alone.
Compound 1 (dosed as a [Compound 1:HCl:3H2O]) capsules administered orally in 30 mg, 75 mg, 150 mg, or 300 mg doses per day for 4 weeks.
Plasma ApoC-II and ApoC-III concentrations are determined using commercial available ELISA kits from Abnova (9th Floor, No. 108, Jhouzih St., Neihu District. Taipei City, 114, Taiwan) according to manufacturer's instruction. apoC2: catalogue number KA0464, lot number used: 08871403. apoC3: catalogue number KA0465, lot number used: 02961525.

O=C(Nc1nc2cccc(-c3ccc(CN4CCS(=O)(=O)CC4)cc3)n2n1)C1CC1 [Compound 1, cyclopropanecarboxylic acid {5-[4-(1,1-dioxo-thiomorpholin-4-ylmethyl)-phenyl]-[1,2,4]triazolo[1,5-a]pyridin-2yl}-amide]
ApoC-III level, 4 weeks CFB (30 mg q.d.): 4.6% | ApoC-III level, week 4 (30 mg q.d.): 78.6 ng/mL | ApoC-III level, 4 weeks CFB (75 mg q.d.): 17.6% | ApoC-III level, week 4 (75 mg q.d.): 79.6 ng/mL | ApoC-III level, 4 weeks CFB (150 mg q.d.): 9.6% | ApoC-III level, week 4 (150 mg q.d.): 82.7 ng/mL | ApoC-III level, 4 weeks CFB (300 mg q.d.): 27.9% | ApoC-III level, week 4 (300 mg q.d.): 88.2 ng/mL
